Results as given in US11566022B2, “3-(5-methoxy-1-oxoisoindolin-2-yl)piperidine-2,6-dione derivatives and uses thereof” (NOVARTIS AG, priority 2019, dated 2023).

Molecular target: HiBit-WIZ fusion protein (Homo sapiens, UniProt O95785+Q96SW2)
Experiment: Quantification of WIZ protein levels in HiBit tag fusion protein assay (WIZ HiBit assay in 293T cells)
Assay type: cell-based
Design: Dmax: dose or concentration left out as unconfirmed
Conditions: for Dmax / remaining activity at up to 25 µM: HEK-293T; for Dmax: read-out: % degradation of WIZ (100-Amax); for remaining activity at up to 25 µM: read-out: WIZ Amax; for DC50: WIZ HiBit assay in 293T cells, 10-point, 5-fold dose response, highest concentration 25 μM, about 18 hours, read-out: WIZ AC50
[1] = DMSO-normalized, curve-fitted percentage of WIZ-HiBit remaining at 25 uM, 293T cells

HiBit-WIZ fusion protein, sequence (O95785 whole entry, the tested form may be a part): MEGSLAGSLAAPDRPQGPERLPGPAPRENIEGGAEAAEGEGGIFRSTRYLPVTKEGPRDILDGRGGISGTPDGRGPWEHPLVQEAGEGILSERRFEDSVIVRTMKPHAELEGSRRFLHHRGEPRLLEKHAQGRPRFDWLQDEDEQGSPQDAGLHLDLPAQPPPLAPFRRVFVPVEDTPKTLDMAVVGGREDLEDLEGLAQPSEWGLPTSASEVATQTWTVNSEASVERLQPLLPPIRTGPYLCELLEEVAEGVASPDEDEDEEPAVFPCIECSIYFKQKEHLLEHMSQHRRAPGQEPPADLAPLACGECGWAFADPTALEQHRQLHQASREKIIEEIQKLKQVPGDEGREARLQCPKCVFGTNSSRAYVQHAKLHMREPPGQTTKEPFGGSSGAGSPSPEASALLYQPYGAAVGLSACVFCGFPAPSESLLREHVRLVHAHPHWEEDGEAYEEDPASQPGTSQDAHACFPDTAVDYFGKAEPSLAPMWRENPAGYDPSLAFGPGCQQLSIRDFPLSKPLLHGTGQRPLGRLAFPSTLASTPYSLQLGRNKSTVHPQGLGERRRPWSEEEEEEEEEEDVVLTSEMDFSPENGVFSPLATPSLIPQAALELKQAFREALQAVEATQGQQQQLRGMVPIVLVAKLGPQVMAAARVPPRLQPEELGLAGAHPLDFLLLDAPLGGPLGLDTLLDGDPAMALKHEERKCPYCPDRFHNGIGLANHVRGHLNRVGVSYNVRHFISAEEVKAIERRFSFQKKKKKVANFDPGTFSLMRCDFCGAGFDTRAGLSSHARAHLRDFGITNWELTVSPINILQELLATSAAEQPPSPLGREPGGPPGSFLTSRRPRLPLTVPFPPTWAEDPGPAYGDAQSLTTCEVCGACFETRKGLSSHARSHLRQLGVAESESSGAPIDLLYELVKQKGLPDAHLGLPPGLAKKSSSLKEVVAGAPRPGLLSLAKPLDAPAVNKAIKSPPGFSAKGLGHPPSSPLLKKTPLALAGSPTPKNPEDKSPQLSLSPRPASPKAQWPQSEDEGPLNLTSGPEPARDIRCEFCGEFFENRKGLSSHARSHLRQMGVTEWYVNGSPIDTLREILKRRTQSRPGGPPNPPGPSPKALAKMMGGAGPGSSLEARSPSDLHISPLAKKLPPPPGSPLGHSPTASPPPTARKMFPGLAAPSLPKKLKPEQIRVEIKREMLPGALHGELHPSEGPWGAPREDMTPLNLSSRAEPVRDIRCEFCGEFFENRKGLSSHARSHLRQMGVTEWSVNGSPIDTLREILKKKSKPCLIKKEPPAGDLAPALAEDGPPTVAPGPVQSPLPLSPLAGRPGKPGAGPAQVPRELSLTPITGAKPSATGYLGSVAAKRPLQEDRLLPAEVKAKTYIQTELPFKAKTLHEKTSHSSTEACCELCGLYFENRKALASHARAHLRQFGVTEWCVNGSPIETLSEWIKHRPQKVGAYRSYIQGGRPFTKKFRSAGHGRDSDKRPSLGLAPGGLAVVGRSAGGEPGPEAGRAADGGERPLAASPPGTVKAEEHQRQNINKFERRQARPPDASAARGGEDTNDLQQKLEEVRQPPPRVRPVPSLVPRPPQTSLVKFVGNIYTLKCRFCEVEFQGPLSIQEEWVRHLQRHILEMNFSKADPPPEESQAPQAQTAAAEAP
HiBit-WIZ fusion protein, sequence (Q96SW2 whole entry, the tested form may be a part): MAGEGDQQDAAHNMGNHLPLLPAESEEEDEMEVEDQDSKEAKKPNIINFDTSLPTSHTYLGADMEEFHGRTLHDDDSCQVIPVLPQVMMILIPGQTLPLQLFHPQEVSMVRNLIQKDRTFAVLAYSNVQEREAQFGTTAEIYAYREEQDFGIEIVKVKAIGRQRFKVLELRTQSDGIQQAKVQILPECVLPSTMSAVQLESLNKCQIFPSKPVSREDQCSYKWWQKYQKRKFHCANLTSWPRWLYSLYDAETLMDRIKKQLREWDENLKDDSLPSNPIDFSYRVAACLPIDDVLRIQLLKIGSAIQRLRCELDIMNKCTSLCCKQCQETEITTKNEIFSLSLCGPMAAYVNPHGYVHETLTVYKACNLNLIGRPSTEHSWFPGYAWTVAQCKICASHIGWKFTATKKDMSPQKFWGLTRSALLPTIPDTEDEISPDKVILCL
HiBit-WIZ fusion protein, sequence (Q16531 whole entry partner, the tested form may be a part): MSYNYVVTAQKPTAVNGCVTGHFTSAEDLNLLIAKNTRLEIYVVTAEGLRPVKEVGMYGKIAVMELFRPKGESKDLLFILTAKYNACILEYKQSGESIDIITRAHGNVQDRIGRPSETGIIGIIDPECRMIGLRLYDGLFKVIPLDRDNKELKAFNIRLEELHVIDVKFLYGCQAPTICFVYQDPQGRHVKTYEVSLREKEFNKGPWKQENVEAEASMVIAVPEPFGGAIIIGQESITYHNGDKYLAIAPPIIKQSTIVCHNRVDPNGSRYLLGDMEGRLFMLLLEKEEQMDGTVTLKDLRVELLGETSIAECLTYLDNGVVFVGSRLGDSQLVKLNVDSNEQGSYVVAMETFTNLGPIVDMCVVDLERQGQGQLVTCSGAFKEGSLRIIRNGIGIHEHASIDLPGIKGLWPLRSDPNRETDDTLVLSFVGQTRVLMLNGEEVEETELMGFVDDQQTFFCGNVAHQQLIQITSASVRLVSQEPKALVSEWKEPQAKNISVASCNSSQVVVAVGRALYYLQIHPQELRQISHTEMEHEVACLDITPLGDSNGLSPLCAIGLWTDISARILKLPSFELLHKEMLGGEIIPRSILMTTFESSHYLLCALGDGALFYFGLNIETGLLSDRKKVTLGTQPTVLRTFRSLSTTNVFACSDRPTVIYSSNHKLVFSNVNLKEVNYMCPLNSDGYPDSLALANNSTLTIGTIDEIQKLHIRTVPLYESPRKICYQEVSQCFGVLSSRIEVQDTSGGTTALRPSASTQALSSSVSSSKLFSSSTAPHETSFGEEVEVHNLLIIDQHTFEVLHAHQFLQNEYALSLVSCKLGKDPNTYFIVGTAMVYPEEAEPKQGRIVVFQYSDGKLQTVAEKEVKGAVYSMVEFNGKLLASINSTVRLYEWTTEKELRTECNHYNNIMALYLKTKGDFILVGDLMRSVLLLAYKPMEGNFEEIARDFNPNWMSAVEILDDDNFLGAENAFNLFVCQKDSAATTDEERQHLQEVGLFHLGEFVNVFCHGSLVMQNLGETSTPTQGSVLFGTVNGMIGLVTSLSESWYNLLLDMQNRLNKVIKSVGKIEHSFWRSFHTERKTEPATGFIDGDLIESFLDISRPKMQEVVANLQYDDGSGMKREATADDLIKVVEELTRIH

| SMILES | Dmax (100 minus Amax, 293T cells) [%] | remaining activity at up to 25 µM [1] [%] | DC50 [nM] | % degradation of WIZ (100-Amax) (100 minus Amax, at 25 uM, 293T cells) [%] | WIZ Amax [1] [%] |
| --- | --- | --- | --- | --- | --- |
| O=C1CCC(N2Cc3cc(OC[C@H]4CCCCN4Cc4ccc(Cn5ccnc5)cc4)ccc3C2=O)C(=O)N1 (stereo partly drawn) [Compound I-50ek] | 99.1 | 0.9 | 4 |  |  |
| Cc1csc(CN2CCCC[C@@H]2COc2ccc3c(c2)CN(C2CCC(=O)NC2=O)C3=O)n1 (stereo partly drawn) [Compound I-151] | 65.1 | 34.9 | 3430 |  |  |
| C[C@H](CC(=O)N1CCCC[C@H]1COc1ccc2c(c1)CN(C1CCC(=O)NC1=O)C2=O)c1ccccc1 (stereo partly drawn) [Compound I-72gu] | 0.2 | 99.8 | > 25000 |  |  |
| COc1cc(C#N)ccc1CN1CCCC[C@@H]1COc1ccc2c(c1)CN(C1CCC(=O)NC1=O)C2=O (stereo partly drawn) [Compound I-50cm] | 67.2 | 32.8 | 1770 |  |  |
| CC1(c2ccc(C(=O)N3CCCC[C@H]3COc3ccc4c(c3)CN(C3CCC(=O)NC3=O)C4=O)cc2)COC1 (stereo partly drawn) [Compound I-72gc] | 58.3 | 41.7 | 10100 |  |  |
| Cn1c(CN2CCCC[C@@H]2COc2ccc3c(c2)CN(C2CCC(=O)NC2=O)C3=O)nc2ccccc21 (stereo partly drawn) [Compound I-50cw] | 39 | 61 | > 25000 |  |  |
| Cc1noc(-c2ccc(C(=O)N3CCCC[C@H]3COc3ccc4c(c3)CN(C3CCC(=O)NC3=O)C4=O)cc2)n1 (stereo partly drawn) [Compound I-72ar] | 71.8 | 28.2 | 2570 |  |  |
| Cc1nnc(-c2ccc(C(=O)N3CCCC[C@H]3COc3ccc4c(c3)CN(C3CCC(=O)NC3=O)C4=O)cc2)o1 (stereo partly drawn) [Compound I-72gy] | 44.1 | 55.9 | > 25000 |  |  |
| O=C1CCC(N2Cc3cc(OC[C@H]4CCCCN4Cc4ccc(OCCN5CCOCC5)cc4)ccc3C2=O)C(=O)N1 (stereo partly drawn) [Compound I-50cg] | 92.7 | 7.3 | 43 |  |  |
| CCn1cc(C(=O)N2CCCC[C@H]2COc2ccc3c(c2)CN(C2CCC(=O)NC2=O)C3=O)c(C)n1 (stereo partly drawn) [Compound I-72gw] | 19.1 | 80.9 | > 25000 |  |  |
| CCc1noc(CC)c1C(=O)N1CCCC[C@H]1COc1ccc2c(c1)CN(C1CCC(=O)NC1=O)C2=O (stereo partly drawn) [Compound I-72s] | 78.2 | 21.8 | 962 |  |  |
| O=C1CCC(N2Cc3cc(OC[C@H]4CCCCN4Cc4cccc(Cn5ccnc5)c4)ccc3C2=O)C(=O)N1 (stereo partly drawn) [Compound I-50eh] | 97.2 | 2.8 | 13 |  |  |
| O=C1CCC(N2Cc3cc(OC[C@H]4CCCCN4Cc4ccc5ocnc5c4)ccc3C2=O)C(=O)N1 (stereo partly drawn) [Compound I-201, 3-(5-(((R)-1-(benzo[d]oxazol-5-ylmethyl)piperidin-2-yl)methoxy)-1-oxoisoindolin-2-yl)piperidine-2,6-dione] | 80.5 | 19.5 | 19 |  |  |
| CC#CCCOc1ccc(C(=O)N2CCCC[C@H]2COc2ccc3c(c2)CN(C2CCC(=O)NC2=O)C3=O)cc1 (stereo partly drawn) [Compound I-72ew] | 54.9 | 45.1 | 14600 |  |  |
| O=C1CCC(N2Cc3cc(OC[C@H]4CCCCN4Cc4ccncc4)ccc3C2=O)C(=O)N1 (stereo partly drawn) [Compound I-146] | 68.7 | 31.3 | 2200 |  |  |
| N#Cc1cccc(Cn2cccc(CN3CCCC[C@H]3COc3ccc4c(c3)CN(C3CCC(=O)NC3=O)C4=O)c2=O)c1 (stereo partly drawn) [Compound I-50aw] | 24.5 | 75.5 | > 25000 |  |  |
| CCc1cc(CN2CCCC[C@@H]2COc2ccc3c(c2)CN(C2CCC(=O)NC2=O)C3=O)ccc1C1CCN(C(=O)OC(C)(C)C)CC1 (stereo partly drawn) [Compound I-155, Tert-butyl 4-(4-(((2R)-2-(((2-(2,6-dioxopiperidin-3-yl)-1-oxoisoindolin-5-yl)oxy)methyl)piperidin-1-yl)methyl)-2-ethylphenyl)piperidine-1-carboxylate] | 75.2 | 24.9 | 20 |  |  |
| CCN1CCCC(C)(C)C1COc1ccc2c(c1)CN(C1CCC(=O)NC1=O)C2=O (single isomer, unassigned) [Compound I-19, 3-(5-((1-ethyl-3,3-dimethylpiperidin-2-yl)methoxy)-1-oxoisoindolin-2-yl)piperidine-2,6-dione] |  |  | > 25000 | 34.7 | 65.3 |
| CC(Oc1ccccc1Cl)C(=O)N1CCCC[C@H]1COc1ccc2c(c1)CN(C1CCC(=O)NC1=O)C2=O (stereo partly drawn) [Compound I-72ag] | 5.4 | 94.6 | > 25000 |  |  |
| O=C1CCC(N2Cc3cc(OC[C@H]4CCCCN4Cc4cccnc4F)ccc3C2=O)C(=O)N1 (stereo partly drawn) [Compound I-149] | 56.9 | 43.1 | 11400 |  |  |
| O=C1CCC(N2Cc3cc(OC[C@H]4CCCCN4Cc4ccc(N5CCN(CC6CC6)CC5)cc4)ccc3C2=O)C(=O)N1 (stereo partly drawn) [Compound I-102, 3-(5-(((R)-1-(4-(4-(cyclopropylmethyl)piperazin-1-yl)benzyl)piperidin-2-yl)methoxy)-1-oxoisoindolin-2-yl)piperidine-2,6-dione] | 82.7 | 17.3 | 240 |  |  |
| CC(C)(C)Cc1cc(C(=O)N2CCCC[C@H]2COc2ccc3c(c2)CN(C2CCC(=O)NC2=O)C3=O)no1 (stereo partly drawn) [Compound I-72bz] | 46.7 | 53.3 | > 25000 |  |  |
| O=C1CCC(N2Cc3cc(OC[C@H]4CCCCN4Cc4cccc5c4NCCO5)ccc3C2=O)C(=O)N1 (stereo partly drawn) [Compound I-178, 3-(5-(((R)-1-((3,4-dihydro-2H-benzo[b][1,4]oxazin-5-yl)methyl)piperidin-2-yl)methoxy)-1-oxoisoindolin-2-yl)piperidine-2,6-dione] | 78.7 | 21.3 | 20 |  |  |
| CCc1nc(C)c(CN2CCCC[C@H]2COc2ccc3c(c2)CN(C2CCC(=O)NC2=O)C3=O)[nH]1 (stereo partly drawn) [Compound I-50cy] | 89 | 11 | 922 |  |  |
| O=C1CCC(N2Cc3cc(OC[C@H]4CCCCN4Cc4ccc(N5CCN(Cc6ccccc6)CC5)cc4)ccc3C2=O)C(=O)N1 (stereo partly drawn) [Compound I-50br] | 94.1 | 5.9 | 44 |  |  |
| O=C1CCC(N2Cc3cc(OC[C@H]4CCCCN4CCOCc4ccccc4)ccc3C2=O)C(=O)N1 (stereo partly drawn) [Compound I-183, 3-(5-(((R)-1-(2-(benzyloxy)ethyl)piperidin-2-yl)methoxy)-1-oxoisoindolin-2-yl)piperidine-2,6-dione] | 86.1 | 13.9 | 4 |  |  |
| CNc1ncccc1CN1CCCC[C@@H]1COc1ccc2c(c1)CN(C1CCC(=O)NC1=O)C2=O (stereo partly drawn) [Compound I-50cj] | 71.8 | 28.2 | 757 |  |  |

Results, then the compound that gave them:

| Dmax (100 minus Amax, 293T cells) [%] | remaining activity at up to 25 µM [1] [%] | DC50 [nM] | % degradation of WIZ (100-Amax) (100 minus Amax, at 25 uM, 293T cells) [%] | WIZ Amax [1] [%] | SMILES |
| --- | --- | --- | --- | --- | --- |
| 72.1 | 27.9 | 2250 |  |  | COc1c(F)cc(C(=O)N2CCCC[C@H]2COc2ccc3c(c2)CN(C2CCC(=O)NC2=O)C3=O)cc1F (stereo partly drawn) [Compound I-72eg] |
| 98 | 2 | 51 |  |  | COc1cc2[nH]nc(CN3CCCC[C@@H]3COc3ccc4c(c3)CN(C3CCC(=O)NC3=O)C4=O)c2cc1OCc1ccccc1 (stereo partly drawn) [Compound I-50ev] |
| 80.2 | 19.8 | 133 |  |  | O=C1CCC(N2Cc3cc(OC[C@H]4CCCCN4Cc4cnn(-c5cnccn5)c4)ccc3C2=O)C(=O)N1 (stereo partly drawn) [Compound I-50ct] |
| 0.9 | 99.1 | > 25000 |  |  | O=C1CCC(N2Cc3cc(OC[C@@H]4CCCCN4C(=O)[C@@H]4CCCCN4C4CC4)ccc3C2=O)C(=O)N1 (stereo partly drawn) [Compound I-72f] |
| 13.7 | 86.3 | > 25000 |  |  | Cn1nccc1-c1cccc(C(=O)N2CCCC[C@H]2COc2ccc3c(c2)CN(C2CCC(=O)NC2=O)C3=O)c1 (stereo partly drawn) [Compound I-72gz] |
| 82.8 | 17.1 | 32 |  |  | O=C1CCC(N2Cc3cc(OC[C@H]4CCCCN4CC4CC4)ccc3C2=O)C(=O)N1 (stereo partly drawn) [Compound I-214, 3-(5-(((R)-1-(cyclopropylmethyl)piperidin-2-yl)methoxy)-1-oxoisoindolin-2-yl)piperidine-2,6-dione] |
| 78.2 | 21.8 | 1140 |  |  | CN(C)c1ncc(CN2CCCC[C@@H]2COc2ccc3c(c2)CN(C2CCC(=O)NC2=O)C3=O)cn1 (stereo partly drawn) [Compound I-50ar] |
| 82.6 | 17.4 | 816 |  |  | O=C1CCC(N2Cc3cc(OC[C@@H]4CCCCN4Cc4cccn4S(=O)(=O)c4ccccc4)ccc3C2=O)C(=O)N1 (stereo partly drawn) [Compound I-50f] |
| 72.1 | 27.9 | 1200 |  |  | COC(=O)[C@@H]1CC[C@H](CN2CCCC[C@@H]2COc2ccc3c(c2)CN(C2CCC(=O)NC2=O)C3=O)C1 (stereo partly drawn) [Compound I-50bq] |
| 78.4 | 21.6 | 4260 |  |  | Cc1nc(-c2cccc(CN3CCCC[C@@H]3COc3ccc4c(c3)CN(C3CCC(=O)NC3=O)C4=O)c2)no1 (stereo partly drawn) [Compound I-50du] |
| 79.2 | 20.8 | 3200 |  |  | CN(C)Cc1ncc(-c2ccc(Oc3cc(Cl)cnc3CN3CCCC[C@H]3COc3ccc4c(c3)CN(C3CCC(=O)NC3=O)C4=O)cc2)n1C (stereo partly drawn) [Compound I-50z] |
| 53.8 | 46.2 | 13800 |  |  | O=C1CCC(N2Cc3cc(OC[C@@H]4CCCCN4C(=O)c4ccc(N5CCOCC5)cc4)ccc3C2=O)C(=O)N1 (stereo partly drawn) [Compound I-72an] |
| 11.2 | 88.8 | > 25000 |  |  | O=C1CCC(N2Cc3cc(OC[C@@H]4CCCCN4C(=O)c4cccc(S(=O)(=O)O)c4)ccc3C2=O)C(=O)N1 (stereo partly drawn) [Compound I-72a] |
